In patent US20020137929A1, “1 - (3-heterocyclylphenyl) isothiourea, -isourea, -guanidine and -amidine herbicidal agents” (Intellectual Property Department, BASF Aktiengesellschaft, priority 1998, published 2002):

Columns and labels:
[1] = tested on: CYPIR (Rice Flatsedge); experiment: Preemergence weed control under flooded paddy conditions; type: in vivo, Cyperus iria; conditions: rated 3-4 weeks after treatment
Summary of the method: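 Flooded-pot preemergence screen with silt loam and seeds in the upper 0.5 cm. Dose about 0.0313 to 0.500 kg/ha, delivered into flood water; visual 0-9 score after 3 to 4 weeks.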

[2] = tested on: CASOB (Sicklepod); experiment: Preemergence herbicidal evaluation; type: in vivo, Cassia obtusifolia; conditions: preemergence, rated 4-5 weeks after treatment, 0-9 scale
Summary of the method: (§1)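 In this greenhouse assay, monocot and dicot seeds are planted in soil and treated prior to emergence with an aqueous acetone spray (about 0.0156-0.500 kg/ha). Plants are assessed visually against control on a 0-9 scale after 4-5 weeks.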

[3] = tested on: CHEAL (Lambsquarters, Common); experiment: Postemergence herbicidal evaluation; type: in vivo, Chenopodium album; conditions: postemergence
Summary of the method: (§2)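 Each compound, dispersed in an acetone/water mix (50/50) carrying 0.5% TWEEN 20, is nozzle-sprayed at 40 psi on approximately two-week-old seedlings at about 0.0156–0.500 kg/ha. Plants are assessed 4–5 weeks afterward on a 0–9 scale relative to control; duplicate tests are averaged.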

[4] = tested on: AMBEL (Ragweed, Common); experiment: Postemergence herbicidal evaluation; type: in vivo, Ambrosia artemisifolia; conditions: postemergence
Summary of the method: as §2

[5] = tested on: ORYSAT (Rice, Tebonnet); experiment: Postemergence herbicidal evaluation; type: in vivo, Oryza sativa, (L.) Tebonnet; conditions: postemergence
Summary of the method: as §2

[6] = tested on: GALAP (Galium); experiment: Postemergence herbicidal evaluation; type: in vivo, Galium aparine; conditions: postemergence
Summary of the method: as §2

[7] = tested on: CYPSE (Flatsedge); experiment: Postemergence weed control under flooded paddy conditions; type: in vivo, Cyperus serotinus; conditions: postemergence weeds, rated 3 to 4 weeks after treatment
Summary of the method: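 With weeds 3 to 5 cm tall and rice at the 1.5 to 2.5 leaf stage, containers were flooded and water held 1.5 to 3 cm above soil. Compounds in 50/50 v/v aqueous/acetone went into the flood water at about 0.0313 to 0.500 kg/ha a.i. Effects were visually rated 0–9 against controls after three to four weeks in the greenhouse.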

[8] = tested on: SETVI (Foxtail, Green); experiment: Postemergence herbicidal evaluation; type: in vivo, Setaria viridis; conditions: postemergence
Summary of the method: as §2

[9] = tested on: GLXMAW (Soybean, Williams); experiment: Postemergence herbicidal evaluation; type: in vivo, Glycine max, (L.) Merr. cv Williams; conditions: postemergence
Summary of the method: as §2

[10] = tested on: CYPSE (Flatsedge); experiment: Preemergence weed control under flooded paddy conditions; type: in vivo, Cyperus serotinus; conditions: rated 3-4 weeks after treatment
Summary of the method: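 Seeds or propagules sown in silt loam kept flooded 1.5-3 cm; compounds in 50/50 acetone/water pipetted into flood water at about 0.0313 to 0.500 kg/ha. Greenhouse; visual 0-9 rating versus untreated control 3-4 weeks after treatment.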

[11] = tested on: ZEAMX (Corn, Field); experiment: Preemergence herbicidal evaluation; type: in vivo, Zea mays; conditions: preemergence, rated 4-5 weeks after treatment, 0-9 scale
Summary of the method: as §1

[12] = tested on: CASOB (Sicklepod); experiment: Postemergence herbicidal evaluation; type: in vivo, Cassia obtusifolia; conditions: postemergence
Summary of the method: as §2

[13] = tested on: GALAP (Galium); experiment: Preemergence herbicidal evaluation; type: in vivo, Galium aparine; conditions: preemergence, rated 4-5 weeks after treatment, 0-9 scale
Summary of the method: as §1

[14] = tested on: ECHCG (Barnyardgrass); experiment: Postemergence herbicidal evaluation; type: in vivo, Echinochloa crus-galli; conditions: postemergence
Summary of the method: as §2

SMILES: C=CCN1C(=O)C(CC(=O)NS(C)(=O)=O)SC1=Nc1cc(-n2c(=O)cc(C(F)(F)F)n(C)c2=O)c(F)cc1Cl (stereo not shown) [Compound 96, 3-Allyl-2-{{2-chloro-5-[3,6-dihydro-3-methyl-2,6-dioxo-4-(trifluoromethyl)-1(2H)-pryimidinyl]-4-fluorophenyl}imino}-N-(methylsulfonyl)-4-oxo-5-thiazolidineacetamide]
- CYPIR herbicidal effect rating ([1]; 0.0313 kg/ha): 0.0
- CYPIR herbicidal effect rating ([1]; 0.0625 kg/ha): 5.0
- CYPIR herbicidal effect rating ([1]; 0.1250 kg/ha): 6.0
- CYPIR herbicidal effect rating ([1]; 0.2500 kg/ha): 6.0
- CASOB rating ([2]; 0.0313 kg/ha): 0.0
- CASOB rating ([2]; 0.0625 kg/ha): 0.0
- CASOB rating ([2]; 0.1250 kg/ha): 0.0
- CASOB rating ([2]; 0.2500 kg/ha): 4.0
- CASOB rating ([2]; 0.5000 kg/ha): 9.0
- CHEAL herbicidal rating ([3]; rate 0.0156 kg/ha): 2.0
- CHEAL herbicidal rating ([3]; rate 0.0313 kg/ha): 2.0
- AMBEL herbicidal rating ([4]; rate 0.0156 kg/ha): 3.0
- AMBEL herbicidal rating ([4]; rate 0.0313 kg/ha): 4.0
- AMBEL herbicidal rating ([4]; rate 0.0625 kg/ha): 7.0
- AMBEL herbicidal rating ([4]; rate 0.1250 kg/ha): 7.0
- ORYSAT herbicidal rating ([5]; rate 0.0156 kg/ha): 2.0
- ORYSAT herbicidal rating ([5]; rate 0.0313 kg/ha): 2.0
- ORYSAT herbicidal rating ([5]; rate 0.0625 kg/ha): 1.5
- ORYSAT herbicidal rating ([5]; rate 0.1250 kg/ha): 2.0
- GALAP herbicidal rating ([6]; rate 0.0156 kg/ha): 0.0
- GALAP herbicidal rating ([6]; rate 0.0313 kg/ha): 0.0
- GALAP herbicidal rating ([6]; rate 0.0625 kg/ha): 1.0
- GALAP herbicidal rating ([6]; rate 0.1250 kg/ha): 0.0
- Herbicidal rating CYPSE ([7]; Rate 0.0313 kg/ha): 0.0
- Herbicidal rating CYPSE ([7]; Rate 0.0625 kg/ha): 0.0
- Herbicidal rating CYPSE ([7]; Rate 0.1250 kg/ha): 0.0
- Herbicidal rating CYPSE ([7]; Rate 0.2500 kg/ha): 0.0
- SETVI herbicidal rating ([8]; rate 0.0156 kg/ha): 0.0
- SETVI herbicidal rating ([8]; rate 0.0313 kg/ha): 1.0
- SETVI herbicidal rating ([8]; rate 0.0625 kg/ha): 7.0
- SETVI herbicidal rating ([8]; rate 0.1250 kg/ha): 4.0
- GLXMAW herbicidal rating ([9]; rate 0.0156 kg/ha): 4.0
- GLXMAW herbicidal rating ([9]; rate 0.0313 kg/ha): 4.5
- GLXMAW herbicidal rating ([9]; rate 0.0625 kg/ha): 4.0
- GLXMAW herbicidal rating ([9]; rate 0.1250 kg/ha): 3.0
- CYPSE herbicidal effect rating ([10]; 0.0313 kg/ha): 0.0
- CYPSE herbicidal effect rating ([10]; 0.0625 kg/ha): 0.0
- CYPSE herbicidal effect rating ([10]; 0.1250 kg/ha): 0.0
- CYPSE herbicidal effect rating ([10]; 0.2500 kg/ha): 0.0
- ZEAMX rating ([11]; 0.0313 kg/ha): 0.0
- ZEAMX rating ([11]; 0.0625 kg/ha): 1.0
- ZEAMX rating ([11]; 0.1250 kg/ha): 0.0
- ZEAMX rating ([11]; 0.2500 kg/ha): 2.0
- ZEAMX rating ([11]; 0.5000 kg/ha): 4.0
- CASOB herbicidal rating ([12]; rate 0.0156 kg/ha): 0.0
- CASOB herbicidal rating ([12]; rate 0.0313 kg/ha): 0.0
- CASOB herbicidal rating ([12]; rate 0.0625 kg/ha): 1.0
- CASOB herbicidal rating ([12]; rate 0.1250 kg/ha): 0.0
- GALAP rating ([13]; 0.0313 kg/ha): 0.0
- GALAP rating ([13]; 0.0625 kg/ha): 2.0
- GALAP rating ([13]; 0.1250 kg/ha): 2.0
- GALAP rating ([13]; 0.2500 kg/ha): 6.0
- GALAP rating ([13]; 0.5000 kg/ha): 7.0
- ECHCG herbicidal rating ([14]; rate 0.0156 kg/ha): 0.0
- ECHCG herbicidal rating ([14]; rate 0.0313 kg/ha): 0.0
- ECHCG herbicidal rating ([14]; rate 0.0625 kg/ha): 2.0
- ECHCG herbicidal rating ([14]; rate 0.1250 kg/ha): 2.0

SMILES: CCOC(=O)CN1C(=O)C(CC(=O)NO)S/C1=N/c1cc(-n2c(=O)cc(C(F)(F)F)n(C)c2=O)c(F)cc1Cl (stereo not shown) [Compound 98, Ethyl 2-{{2-chloro-5-[3,6-dihydro-3-methyl-2,6-dioxo-4-(trifluoromethyl)-1(2H)-pyrimidinyl]-4-fluorophenyl}imino}-5-[(hydroxycarbamoyl)methyl]-4-oxo-3-thiazolidineacetate]
- CYPIR herbicidal effect rating ([1]; 0.0313 kg/ha): 9.0
- CYPIR herbicidal effect rating ([1]; 0.0625 kg/ha): 9.0
- CYPIR herbicidal effect rating ([1]; 0.1250 kg/ha): 9.0
- CYPIR herbicidal effect rating ([1]; 0.2500 kg/ha): 9.0
- CASOB rating ([2]; 0.0156 kg/ha): 0.0
- CASOB rating ([2]; 0.0313 kg/ha): 0.0
- CASOB rating ([2]; 0.0625 kg/ha): 0.0
- CASOB rating ([2]; 0.1250 kg/ha): 1.0
- CASOB rating ([2]; 0.2500 kg/ha): 2.0
- CASOB rating ([2]; 0.5000 kg/ha): 7.0
- CHEAL herbicidal rating ([3]; rate 0.0156 kg/ha): 0.0
- CHEAL herbicidal rating ([3]; rate 0.0313 kg/ha): 1.0
- CHEAL herbicidal rating ([3]; rate 0.0625 kg/ha): 3.0
- CHEAL herbicidal rating ([3]; rate 0.1250 kg/ha): 9.0
- AMBEL herbicidal rating ([4]; rate 0.0156 kg/ha): 3.0
- AMBEL herbicidal rating ([4]; rate 0.0313 kg/ha): 3.0
- AMBEL herbicidal rating ([4]; rate 0.0625 kg/ha): 4.0
- AMBEL herbicidal rating ([4]; rate 0.1250 kg/ha): 9.0
- ORYSAT herbicidal rating ([5]; rate 0.0156 kg/ha): 1.5
- ORYSAT herbicidal rating ([5]; rate 0.0313 kg/ha): 2.5
- ORYSAT herbicidal rating ([5]; rate 0.0625 kg/ha): 2.5
- ORYSAT herbicidal rating ([5]; rate 0.1250 kg/ha): 2.0
- GALAP herbicidal rating ([6]; rate 0.0156 kg/ha): 0.0
- GALAP herbicidal rating ([6]; rate 0.0313 kg/ha): 0.0
- GALAP herbicidal rating ([6]; rate 0.0625 kg/ha): 0.0
- GALAP herbicidal rating ([6]; rate 0.1250 kg/ha): 1.0
- Herbicidal rating CYPSE ([7]; Rate 0.0313 kg/ha): 2.0
- Herbicidal rating CYPSE ([7]; Rate 0.0625 kg/ha): 3.0
- Herbicidal rating CYPSE ([7]; Rate 0.1250 kg/ha): 4.0
- Herbicidal rating CYPSE ([7]; Rate 0.2500 kg/ha): 4.0
- SETVI herbicidal rating ([8]; rate 0.0156 kg/ha): 1.0
- SETVI herbicidal rating ([8]; rate 0.0313 kg/ha): 0.0
- SETVI herbicidal rating ([8]; rate 0.0625 kg/ha): 1.0
- SETVI herbicidal rating ([8]; rate 0.1250 kg/ha): 2.0
- GLXMAW herbicidal rating ([9]; rate 0.0156 kg/ha): 4.5
- GLXMAW herbicidal rating ([9]; rate 0.0313 kg/ha): 4.5
- GLXMAW herbicidal rating ([9]; rate 0.0625 kg/ha): 5.5
- GLXMAW herbicidal rating ([9]; rate 0.1250 kg/ha): 5.5
- CYPSE herbicidal effect rating ([10]; 0.0313 kg/ha): 2.0
- CYPSE herbicidal effect rating ([10]; 0.0625 kg/ha): 3.0
- CYPSE herbicidal effect rating ([10]; 0.1250 kg/ha): 4.0
- CYPSE herbicidal effect rating ([10]; 0.2500 kg/ha): 4.0
- ZEAMX rating ([11]; 0.0156 kg/ha): 0.0
- ZEAMX rating ([11]; 0.0313 kg/ha): 0.0
- ZEAMX rating ([11]; 0.0625 kg/ha): 0.0
- ZEAMX rating ([11]; 0.1250 kg/ha): 0.0
- ZEAMX rating ([11]; 0.2500 kg/ha): 4.0
- ZEAMX rating ([11]; 0.5000 kg/ha): 6.0
- CASOB herbicidal rating ([12]; rate 0.0156 kg/ha): 0.0
- CASOB herbicidal rating ([12]; rate 0.0313 kg/ha): 0.0
- CASOB herbicidal rating ([12]; rate 0.0625 kg/ha): 0.0
- CASOB herbicidal rating ([12]; rate 0.1250 kg/ha): 1.0
- GALAP rating ([13]; 0.0156 kg/ha): 1.0
- GALAP rating ([13]; 0.0313 kg/ha): 0.0
- GALAP rating ([13]; 0.0625 kg/ha): 6.0
- GALAP rating ([13]; 0.2500 kg/ha): 7.0
- GALAP rating ([13]; 0.5000 kg/ha): 7.0
- ECHCG herbicidal rating ([14]; rate 0.0156 kg/ha): 0.0
- ECHCG herbicidal rating ([14]; rate 0.0313 kg/ha): 0.0
- ECHCG herbicidal rating ([14]; rate 0.0625 kg/ha): 1.0
- ECHCG herbicidal rating ([14]; rate 0.1250 kg/ha): 1.0
